Our source for the inhibition and IC50 values is patent US7473790B2 (Pfizer Inc., priority 2003, dated 2009).

As usually defined, the inhibition is the drop in the measured response relative to a control, in per cent. As usually defined, the IC50 is the concentration needed to halve the response being measured.

In the first test the target is T1, HCV polymerase (Hepatitis C virus genotype 1b, UniProt P26663).
T1 construct: 2.5 pmoles (0.15 μg) HCV polymerase protein in a final volume of 75 μL
T1 sequence (P26663 2420-3010): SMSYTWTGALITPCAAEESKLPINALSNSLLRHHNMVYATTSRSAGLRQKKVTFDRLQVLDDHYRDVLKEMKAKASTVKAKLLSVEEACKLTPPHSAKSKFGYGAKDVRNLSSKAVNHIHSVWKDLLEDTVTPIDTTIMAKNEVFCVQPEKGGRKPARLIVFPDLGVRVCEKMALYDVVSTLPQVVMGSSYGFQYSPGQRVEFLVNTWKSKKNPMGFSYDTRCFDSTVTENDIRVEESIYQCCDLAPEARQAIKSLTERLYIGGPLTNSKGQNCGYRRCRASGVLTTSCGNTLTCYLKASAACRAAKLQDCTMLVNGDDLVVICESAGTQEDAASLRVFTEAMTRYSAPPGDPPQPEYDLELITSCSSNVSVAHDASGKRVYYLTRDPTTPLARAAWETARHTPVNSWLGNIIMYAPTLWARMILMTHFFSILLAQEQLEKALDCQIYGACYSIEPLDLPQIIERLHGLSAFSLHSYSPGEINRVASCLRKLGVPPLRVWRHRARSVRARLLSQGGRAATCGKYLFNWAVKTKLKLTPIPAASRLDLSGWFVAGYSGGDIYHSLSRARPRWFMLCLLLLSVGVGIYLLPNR
Briefly: HCV polymerase primer/template-directed transcription assay (32P-GTP incorporation, filter binding). It is filed as biochemical. As to conditions: @ 20 uM compound; given where IC50 was impractical to calculate; read-out: percent inhibition. In short, it runs like this: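 IC50s come from triplicate cpm, refit with an enzyme-concentration (30 nM) correction when under 200 nM. Reactions ran 30 min at 30° C in Tris pH 7.2 with MgCl2, 1 μM GTP spiked with α-32P-GTP, biotin-dG12 primer and poly(rC)300 template, with 1% DMSO. Incorporated label was collected on DE filtermats and counted.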
Consider `CCC1(CCc2ccc(OC)cc2)CC(O)=C(Sc2nc3cc(Cl)ccc3n2C(C)C)C(=O)O1` (centres unmarked) [C(15), 3-(5-Chloro-1-isopropyl-1H-benzoimidazol-2-ylsulfanyl)-6-ethyl-4-hydroxy-6-[2-(4-methoxy-phenyl)-ethyl]-5,6-dihydro-pyran-2-one], for which the inhibition at 20 µM is 22%. `CCC1(CCc2ccc(OC)cc2)CC(O)=C(Sc2nc3nc(C)cc(C)n3n2)C(=O)O1` (centres unmarked) [C(16), 3-(5,7-Dimethyl-[1,2,4]triazolo[1,5-a]pyrimidin-2-ylsulfanyl)-6-ethyl-4-hydroxy-6-[2-(4-methoxy-phenyl)-ethyl]-5,6-dihydro-pyran-2-one]: the inhibition at 20 µM is 8%.

Staying with this test, now noted: @ 50 uM compound; given where IC50 was impractical to calculate; read-out: percent inhibition.
As to `Cc1cc(C)n2nc(SC3=C(O)CC(C)(C4CCCC4)OC3=O)nc2n1` (centres unmarked) [C(17), 6-Cyclopentyl-3-(5,7-dimethyl-[1,2,4]triazolo[1,5-a]pyrimidin-2-ylsulfanyl)-4-hydroxy-6-methyl-5,6-dihydro-pyran-2-one], the inhibition at 50 µM was 2%. Same read-out and setting: for `CCC1(CC)CC(O)=C(Sc2nc3nc(C)cc(C)n3n2)C(=O)O1` [C(18), 3-(5,7-Dimethyl-[1,2,4]triazolo[1,5-a]pyrimidin-2-ylsulfanyl)-6,6-diethyl-4-hydroxy-5,6-dihydro-pyran-2-one] the value was 2%; for `CCC1(CC)CC(O)=C(Sc2nc3cc(Cl)ccc3n2C(C)C)C(=O)O1` [C(19), 3-(5-Chloro-1-isopropyl-1H-benzoimidazol-2-ylsulfanyl)-6,6-diethyl-4-hydroxy-5,6-dihydro-pyran-2-one], 22%.

Consider `CCC1(C)CC(O)=C(Sc2nc3cc(Cl)ccc3n2C(C)C)C(=O)O1` (centres unmarked) [C(20), 3-(5-Chloro-1-isopropyl-1H-benzoimidazol-2-ylsulfanyl)-6-ethyl-4-hydroxy-6-methyl-5,6-dihydro-pyran-2-one], for which the inhibition at 50 µM was 11%. Same read-out and setting: under `CCC1(C)CC(O)=C(Sc2nc3nc(C)cc(C)n3n2)C(=O)O1` (centres unmarked) [C(21), 3-(5,7-Dimethyl-[1,2,4]triazolo[1,5-a]pyrimidin-2-ylsulfanyl)-6-ethyl-4-hydroxy-6-methyl-5,6-dihydro-pyran-2-one] stands 12%.

Staying with this test, now noted: recombinant HCV polymerase; 30 minutes at 30° C.; concentration giving 50% inhibition of polymerase-directed transcription; read-out: IC50.
For the compound `Cc1cc(C)n2nc(SC3=C(O)CC(CCc4ccc(-c5c(C)noc5C)cc4)(C4CCCC4)OC3=O)nc2n1` (centres unmarked) [C(13), 6-Cyclopentyl-6-{2-[4-(3,5-dimethyl-isoxazol-4-yl)-phenyl]-ethyl}-3-(5,7-dimethyl-[1,2,4]triazolo[1,5-a]pyrimidin-2-ylsulfanyl)-4-hydroxy-5,6-dihydro-pyran-2-one], the half-inhibitory concentration (IC50) stood at 16 nM. On the same count and under the same terms, under `Cc1noc(C)c1-c1ccc(CCC2(C3CCCC3)CC(O)=C(Sc3nc4cc(Cl)ccc4n3C)C(=O)O2)cc1` (centres unmarked) [C(14), 3-(5-Chloro-1-methyl-1H-benzoimidazol-2-ylsulfanyl)-6-cyclopentyl-6-{2-[4-(3,5-dimethyl-isoxazol-4-yl)-phenyl]-ethyl}-4-hydroxy-5,6-dihydro-pyran-2-one] stands 14 nM; under `COc1ccc(CCC2(C3CCCC3)CC(O)=C(Sc3nnc(-c4ccccc4)[nH]3)C(=O)O2)cc1Cl` (centres unmarked) [C(22), 6-[2-(3-Chloro-4-methoxy-phenyl)-ethyl]-6-cyclopentyl-3-(5-phenyl-4H-[1,2,4]triazol-3-ylsulfanyl)-dihydro-pyran-2,4-dione], 68 nM; under `COc1ccc(CCC2(C3CCCC3)CC(O)=C(Sc3nnc(-c4ccc(O)cc4)[nH]3)C(=O)O2)cc1Cl` (centres unmarked) [C(23), 6-[2-(3-Chloro-4-methoxy-phenyl)-ethyl]-6-cyclopentyl-3-[5-(4-hydroxy-phenyl)-4H-[1,2,4]triazol-3-ylsulfanyl]-dihydro-pyran-2,4-dione], 50 nM. The same measure, in the same setting: for `CC(C)Oc1ccc(CCC2(C3CCCC3)CC(O)=C(Sc3nnc(-c4ccccc4)[nH]3)C(=O)O2)cc1F` (centres unmarked) [C(24), 6-Cyclopentyl-6-[2-(3-fluoro-4-isopropoxy-phenyl)-ethyl]-4-hydroxy-3-(5-phenyl-4H-[1,2,4]triazol-3-ylsulfanyl)-5,6-dihydro-pyran-2-one] the value was 51 nM; for `CC(C)Oc1ccc(CCC2(C3CCCC3)CC(O)=C(Sc3nc4cc(Cl)ccc4n3C(C)C)C(=O)O2)cc1Cl` (centres unmarked) [C(25), 6-[2-(3-Chloro-4-isopropoxy-phenyl)-ethyl]-3-(5-chloro-1-isopropyl-1H-benzoimidazol-2-ylsulfanyl)-6-cyclopentyl-4-hydroxy-5,6-dihydro-pyran-2-one], 20 nM; for `CC(C)Oc1ccc(CCC2(C3CCCC3)CC(O)=C(Sc3nc4cc(Cl)ccc4[nH]3)C(=O)O2)cc1Cl` (centres unmarked) [C(26), 3-(5-Chloro-1H-benzoimidazol-2-ylsulfanyl)-6-[2-(3-chloro-4-isopropoxy-phenyl)-ethyl]-6-cyclopentyl-4-hydroxy-5,6-dihydro-pyran-2-one], 130 nM. The same measure, in the same setting: under `O=C1OC(CCC2CCCCC2)(C2CCCC2)CC(O)=C1Sc1nnc(-c2ccncc2)[nH]1` (centres unmarked) [C(27), 6-(2-Cyclohexyl-ethyl)-6-cyclopentyl-4-hydroxy-3-(5-pyridin-4-yl-4H-[1,2,4]triazol-3-ylsulfanyl)-5,6-dihydro-pyran-2-one] stands 2500 nM; under `O=C1OC(CCC2CCCC2)(C2CCCC2)CC(O)=C1Sc1nnc(-c2ccncc2)[nH]1` (centres unmarked) [C(28), 6-Cyclopentyl-6-(2-cyclopentyl-ethyl)-4-hydroxy-3-(5-pyridin-4-yl-4H-[1,2,4]triazol-3-ylsulfanyl)-5,6-dihydro-pyran-2-one], 8000 nM.

Turning to `CC(C)n1c(SC2=C(O)CC(CCC3CCCC3)(C3CCCC3)OC2=O)nc2cc(Cl)ccc21` (centres unmarked) [C(29), 3-(5-Chloro-1-isopropyl-1H-benzoimidazol-2-ylsulfanyl)-6-cyclopentyl-6-(2-cyclopentyl-ethyl)-4-hydroxy-5,6-dihydro-pyran-2-one], the IC50 was found to be 9300 nM.

`O=C1OC(CCCC2CCCCC2)(C2CCCC2)CC(O)=C1Sc1nnc(-c2ccncc2)[nH]1` (centres unmarked) [C(30), 6-(3-Cyclohexyl-propyl)-6-cyclopentyl-4-hydroxy-3-(5-pyridin-4-yl-4H-[1,2,4]triazol-3-ylsulfanyl)-5,6-dihydro-pyran-2-one]: the IC50 turned out to be 550 nM.

Regarding `CC(C)n1c(SC2=C(O)CC(CCCC3CCCCC3)(C3CCCC3)OC2=O)nc2cc(Cl)ccc21` (centres unmarked) [C(31), 3-(5-Chloro-1-isopropyl-1H-benzoimidazol-2-ylsulfanyl)-6-(3-cyclohexyl-propyl)-6-cyclopentyl-4-hydroxy-5,6-dihydro-pyran-2-one], the IC50 was 510 nM. On to `O=C1OC(CCCCC2CCCCC2)(C2CCCC2)CC(O)=C1Sc1nnc(-c2ccncc2)[nH]1` (centres unmarked) [C(32), 6-(4-Cyclohexyl-butyl)-6-cyclopentyl-4-hydroxy-3-(5-pyridin-4-yl-4H-[1,2,4]triazol-3-ylsulfanyl)-5,6-dihydro-pyran-2-one], for which the IC50 came to 270 nM.

In the case of `COc1ccc(CCC2(C3CCCC3)CC(O)=C(Sc3nncn3C(C)(C)C)C(=O)O2)cc1Cl` (centres unmarked) [C(34), 3-[(4-tert-butyl-4H-1,2,4-triazol-3-yl)thio]-6-[2-(3-chloro-4-methoxyphenyl)ethyl]-6-cyclopentyl-4-hydroxy-5,6-dihydro-2H-pyran-2-one], the half-inhibitory concentration (IC50) came out at 53 nM. Still for that read-out and setting: under `CCn1cnnc1SC1=C(O)CC(CCc2ccc(OC)c(Cl)c2)(C2CCCC2)OC1=O` (centres unmarked) [C(35), 6-[2-(3-chloro-4-methoxyphenyl)ethyl]-6-cyclopentyl-3-[(4-ethyl-4H-1,2,4-triazol-3-yl)thio]-4-hydroxy-5,6-dihydro-2H-pyran-2-one] stands 70 nM; under `COc1ccc(CCC2(C3CCCC3)CC(O)=C(Sc3nncn3C(C)C)C(=O)O2)cc1Cl` (centres unmarked) [C(36), 6-[2-(3-chloro-4-methoxyphenyl)ethyl]-6-cyclopentyl-4-hydroxy-3-[(4-isopropyl-4H-1,2,4-triazol-3-yl)thio]-5,6-dihydro-2H-pyran-2-one], 79 nM; under `COc1ccc(CCC2(C3CCCC3)CC(O)=C(Sc3nncn3-c3ccccc3)C(=O)O2)cc1Cl` (centres unmarked) [C(37), 6-[2-(3-chloro-4-methoxyphenyl)ethyl]-6-cyclopentyl-4-hydroxy-3-[(4-phenyl-4H-1,2,4-triazol-3-yl)thio]-5,6-dihydro-2H-pyran-2-one], 130 nM. With `COc1ccc(CCC2(C3CCCC3)CC(O)=C(Sc3nnnn3C)C(=O)O2)cc1Cl` (centres unmarked) [C(38), 6-[2-(3-chloro-4-methoxyphenyl)ethyl]-6-cyclopentyl-4-hydroxy-3-[(1-methyl-1H-tetrazol-5-yl)thio]-5,6-dihydro-2H-pyran-2-one], the concentration for half-maximal inhibition (IC50) was found to be 280 nM. Same read-out and setting: for `CCn1nnnc1SC1=C(O)CC(CCc2ccc(OC)c(Cl)c2)(C2CCCC2)OC1=O` (centres unmarked) [C(39), 6-[2-(3-chloro-4-methoxyphenyl)ethyl]-6-cyclopentyl-3-[(1-ethyl-1H-tetrazol-5-yl)thio]-4-hydroxy-5,6-dihydro-2H-pyran-2-one] the value was 220 nM; for `COc1ccc(CCC2(C3CCCC3)CC(O)=C(Sc3nc4cc(Cl)ccc4n3C(C)C)C(=O)O2)cc1Cl` (centres unmarked) [C(40), 3-[(5-chloro-1-isopropyl-1H-benzimidazol-2-yl)thio]-6-[2-(3-chloro-4-methoxyphenyl)ethyl]-6-cyclopentyl-4-hydroxy-5,6-dihydro-2H-pyran-2-one], 25 nM; for `COc1ccc(CCC2(C3CCCC3)CC(O)=C(Sc3nc4ccccc4n3C)C(=O)O2)cc1Cl` (centres unmarked) [C(41), 6-[2-(3-chloro-4-methoxyphenyl)ethyl]-6-cyclopentyl-4-hydroxy-3-[(1-methyl-1H-benzimidazol-2-yl)thio]-5,6-dihydro-2H-pyran-2-one], 170 nM. As to `COc1ccc(CCC2(C3CCCC3)CC(O)=C(Sc3nnc(-c4ccco4)n3C)C(=O)O2)cc1Cl` (centres unmarked) [C(42), 6-[2-(3-chloro-4-methoxyphenyl)ethyl]-6-cyclopentyl-3-{[5-(2-furyl)-4-methyl-4H-1,2,4-triazol-3-yl]thio}-4-hydroxy-5,6-dihydro-2H-pyran-2-one], the 50% inhibitory concentration (IC50) was determined as 13 nM.
